One test concerns the target T1, PDE2 (Bos taurus, UniProt P14099).
T1 construct: tissue Tokyo Shibaura Zoki; host or cells: bovine adrenal gland, soluble fraction, ion-exchange fractions
T1 sequence (P14099 1-921): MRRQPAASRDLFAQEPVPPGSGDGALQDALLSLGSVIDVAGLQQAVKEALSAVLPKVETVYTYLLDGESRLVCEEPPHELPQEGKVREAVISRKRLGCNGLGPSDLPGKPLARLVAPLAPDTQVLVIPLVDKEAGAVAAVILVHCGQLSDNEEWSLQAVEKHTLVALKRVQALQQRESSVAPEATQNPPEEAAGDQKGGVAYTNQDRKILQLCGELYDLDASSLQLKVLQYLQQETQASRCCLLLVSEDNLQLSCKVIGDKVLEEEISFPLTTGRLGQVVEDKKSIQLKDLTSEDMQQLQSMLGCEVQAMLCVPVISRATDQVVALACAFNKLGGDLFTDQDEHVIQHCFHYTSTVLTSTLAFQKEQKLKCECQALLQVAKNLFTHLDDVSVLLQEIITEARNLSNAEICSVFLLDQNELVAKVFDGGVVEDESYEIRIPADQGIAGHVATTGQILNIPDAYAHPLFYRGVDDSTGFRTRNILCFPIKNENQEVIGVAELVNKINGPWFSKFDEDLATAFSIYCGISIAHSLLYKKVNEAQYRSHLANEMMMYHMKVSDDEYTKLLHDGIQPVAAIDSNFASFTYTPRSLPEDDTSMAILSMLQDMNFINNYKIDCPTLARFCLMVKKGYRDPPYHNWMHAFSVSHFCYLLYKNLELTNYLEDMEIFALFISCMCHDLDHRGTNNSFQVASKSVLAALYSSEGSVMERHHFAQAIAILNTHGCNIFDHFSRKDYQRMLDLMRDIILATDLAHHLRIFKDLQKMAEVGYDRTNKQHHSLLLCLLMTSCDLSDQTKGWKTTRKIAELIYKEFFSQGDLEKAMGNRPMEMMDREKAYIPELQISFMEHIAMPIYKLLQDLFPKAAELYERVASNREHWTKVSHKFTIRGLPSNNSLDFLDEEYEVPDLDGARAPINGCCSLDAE
Kind of test: PDE assay, PDE2 enzyme solution from bovine adrenal gland. The class given is biochemical, Japanese Black Cattle. As to the method: One adrenal gland of Japanese Black Cattle, purchased from Tokyo Shibaura Zoki, co., Ltd. was washed with 100 ml of ice-cold saline (0.9% sodium chloride) twice. Subsequently, the tissues were cut into about 1 gram, and it was frozen by liquid nitrogen. To about 2 g of this tissue sample was added 10 ml of an ice-cold homogenization buffer II (25 mM Tris-HCl, pH 7.5, 4 mM magnesium chloride, 0.5 mM EGTA, 2 mM dithiothreitol, 4 mM benzamidine, 0.1 mM phenylmethylsulfonyl fluoride), and the homogenate that was homogenized by Polytron homogenizer for 3 minutes was centrifuged at 8000 rpm, at 4° C. for 20 minutes, and the obtained supernatant was further centrifuged by an ultracentrifuge at 50000 rpm, at 4° C. for 60 minutes. The resultant supernatant was stored at 4° C.
(§1) This supernatant was applied to chromatography under the FPLC system, in the same manner as in Example 1 (1) above. […]
Subsequently, the eluted fractions were used as an enzyme solution for PDE assay, and cGMP-hydrolyzing activity was measured. Or, cAMP-hydrolyzing activity was measured for respective fractions, in the presence or absence of unlabeled cGMP. […]

A further test concerns PDE1. Nature of the test: PDE assay, PDE1 enzyme solution from rat ventricle. The class given is biochemical, SD rat. The settings on record: E4021 100 nM. As to the method:
Ventricle was excised from SD rat anesthetized with sodium pentobarbital (Nihon SLC, about 300 g), and washed with 100 ml of ice-cold saline 3 times. After the tissues were cut in approximately 1 g, it was frozen by liquid nitrogen, and stored at −80° C.
To about 5 g of this tissue sample was added 16 ml of an ice-cold homogenization buffer I, and the resultant mixture was homogenized by Polytron homogenizer for 3 minutes. The homogenate was centrifuged at 8000 rpm, at 4° C. for 20 minutes, and the obtained supernatant was further centrifuged by an ultracentrifuge at 50000 rpm, at 4° C. for 60 minutes. The resultant supernatant was stored at 4° C. […]
Subsequently, the eluted fractions were used as an enzyme solution for PDE assay. […] (final concentration of 1 mM) or calcium chloride (final concentration of 2 mM) and calmodulin (40 unit s/ml), and cGMP-hydrolyzing activity was measured.
For these PDE1 containing fractions, cGMP hydrolyzing activities were analyzed in the presence of E4021 (100 nM), PDE5 specific inhibitor, it was shown that the cGMP-hydrolyzing activities in these fractions were not inhibited by E4021. […]
Further, in the presence or absence of unlabeled cGMP, cAMP-PDE activities were measured for each of the fractions. […]
Still further, in the presence of rolipram (10 μm), the PDE4 specific inhibitor, cAMP hydrolyzing activities were measured for each of the fractions. […]

In the next test the test system is PDE4. Nature of the test: PDE assay, PDE4 enzyme solution from dog lung. The class given is biochemical, mixed-breed dog. The protocol: These fractions were collected and glycerol was added thereto to become 50%, and the mixture was stored at −20° C.
The target in the next test is T2, PDE5 (Canis lupus familiaris, UniProt O77746).
T2 construct: These were used as a PDE5 enzyme solution for PDE assay; tissue Oriental Yeast (animals); host or cells: canine lung, soluble fraction, DEAE Sepharose fractions
Nature of the test: PDE assay, PDE5 enzyme solution from canine lung. The class given is biochemical. The protocol: In the same manner as in (1-4) above, the supernatant obtained from the homogenate of canine lung tissue was applied to chromatography under FLPC system, to collect eluted fractions of 2 ml each.
Subsequently, the eluted fractions were used as an enzyme solution for PDE assay, and cGMP-hydrolyzing activity was measured for respective fractions, in the presence or absence of E4021, the PDE5 specific inhibitor.
Further, for examining contamination of PDE1, which is adjacently eluted, cGMP-hydrolyzing PDE activity of the respective fractions were measured in the same assay buffer containing EGTA (final concentration of 1 mM) [or calcium chloride (final concentration of 2 mM) and calmodulin (40 units/ml)].
These fractions were collected and glycerol was added thereto to become 50%, and the mixture was stored at −20° C. These were used as a PDE5 enzyme solution for PDE assay.

A further test deals with T3, PDE3 (Canis lupus familiaris, UniProt A0A8I3NYE0).
T3 sequence (A0A8I3NYE0 1-1135): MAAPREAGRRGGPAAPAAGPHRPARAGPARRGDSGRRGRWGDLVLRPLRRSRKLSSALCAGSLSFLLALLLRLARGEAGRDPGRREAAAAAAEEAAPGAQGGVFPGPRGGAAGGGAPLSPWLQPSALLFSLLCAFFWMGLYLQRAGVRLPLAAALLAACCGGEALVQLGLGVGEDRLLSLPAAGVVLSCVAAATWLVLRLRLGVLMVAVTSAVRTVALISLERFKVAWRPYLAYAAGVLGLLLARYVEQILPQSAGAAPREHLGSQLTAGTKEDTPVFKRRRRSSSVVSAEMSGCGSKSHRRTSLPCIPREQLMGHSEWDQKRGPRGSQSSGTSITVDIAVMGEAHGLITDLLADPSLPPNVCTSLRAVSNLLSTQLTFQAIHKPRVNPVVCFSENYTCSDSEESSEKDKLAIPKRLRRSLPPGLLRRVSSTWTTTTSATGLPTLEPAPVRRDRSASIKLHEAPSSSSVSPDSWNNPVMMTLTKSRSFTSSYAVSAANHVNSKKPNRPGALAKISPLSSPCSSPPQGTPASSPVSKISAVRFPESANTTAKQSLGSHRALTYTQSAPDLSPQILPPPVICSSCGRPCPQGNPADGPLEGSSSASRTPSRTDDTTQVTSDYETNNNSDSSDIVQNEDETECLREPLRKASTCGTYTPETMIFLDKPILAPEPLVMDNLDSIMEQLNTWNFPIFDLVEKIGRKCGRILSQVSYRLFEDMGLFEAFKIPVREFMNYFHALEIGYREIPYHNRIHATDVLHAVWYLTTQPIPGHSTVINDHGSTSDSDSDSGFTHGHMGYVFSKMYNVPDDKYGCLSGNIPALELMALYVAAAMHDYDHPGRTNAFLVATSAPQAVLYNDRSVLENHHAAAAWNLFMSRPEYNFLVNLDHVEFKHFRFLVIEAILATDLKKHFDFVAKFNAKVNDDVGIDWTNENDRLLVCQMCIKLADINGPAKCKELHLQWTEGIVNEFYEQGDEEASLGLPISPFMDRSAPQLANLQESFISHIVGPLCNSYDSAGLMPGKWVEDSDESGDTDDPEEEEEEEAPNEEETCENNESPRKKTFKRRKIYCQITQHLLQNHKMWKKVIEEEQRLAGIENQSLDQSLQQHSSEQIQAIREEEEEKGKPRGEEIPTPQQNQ
Kind of test: PDE assay, PDE3 enzyme solution from dog ventricle. The class given is biochemical, mixed-breed dog. The protocol: Apex portion of ventricle of mixed-breed dog (Oriental Yeast) was excised, and washed with 500 ml of ice-cold saline three times. Subsequently, the tissues were cut into about 3 g, and it was frozen by liquid nitrogen, and stored at −80° C. To about 1 g of this tissue sample was added 10 ml of an ice-cold homogenization buffer II, and the resultant mixture was homogenized by Polytron homogenizer for 3 minutes. The homogenate was centrifuged at 8000 rpm, at 4° C. for 20 minutes, and the obtained supernatant was further centrifuged by an ultracentrifuge at 40000 rpm, at 4° C. for 60 minutes. The resultant supernatant was stored at 4° C.
as §1
Subsequently, the eluted fractions were used as an enzyme solution for PDE assay, and cGMP-hydrolyzing activity was measured. Further, cAMP-hydrolyzing activity was measured for respective fractions, in the presence or absence of unlabeled cGMP. […]

Take `CCCCCC[C@@H]([C@@H](C)O)n1cnc2c(N)ncnc21` (racemic) [EHNA, erythro-9-(2-hydroxy-3-nonyl)adenine, reference compound]: at PDE2, the “PDE activity of PDE2 enzyme solution in the presence of inhibitor” value was “inhibited”.
As to `O=C(O)C1CCN(c2nc(NCc3ccc4c(c3)OCO4)c3cc(Cl)ccc3n2)CC1` [Compound E4021, reference compound], in the test on PDE1, the “cGMP-hydrolyzing activity of PDE1 containing fractions in the presence of inhibitor” value is listed as “not inhibited”.
As for `COc1ccc(C2CNC(=O)C2)cc1OC1CCCC1` (centres unmarked) [rolipram, reference compound], in the test on PDE4, the “PDE activity of PDE4 enzyme solution in the presence of inhibitor” value was “inhibited”.
Take `CCCc1nn(C)c2c(=O)[nH]c(-c3cc(S(=O)(=O)N4CCN(C)CC4)ccc3OCC)nc12` [sildenafil, reference compound]: the “PDE activity of PDE5 enzyme solution in the presence of inhibitor” value at PDE5 was “inhibited”.
As to `Cc1[nH]c(=O)c(C#N)cc1-c1ccncc1` [milrinone], the “PDE activity of PDE3 enzyme solution in the presence of inhibitor” value at PDE3 was “inhibited”.
